Measured values: BigSolDB 2.1

Molecule `CC(C)c1ccc2sc3ccccc3c(=O)c2c1` has a solubility (mole fraction) (in 1,2-dichloroethane, 306.25 K) of 0.392, a solubility (mole fraction) (in 1,2-dichloroethane, 309.15 K) of 0.424 and a solubility (mole fraction) (in 1,2-dichloroethane, 311.25 K) of 0.455. It also gave a solubility (mole fraction) (in 1,2-dichloroethane, 315.15 K) of 0.486, a solubility (mole fraction) (in 1,2-dichloroethane, 318.15 K) of 0.516 and a solubility (mole fraction) (in 1,2-dichloroethane, 321.15 K) of 0.546. For the same molecule, the solubility (mole fraction) (in 1,2-dichloroethane, 324.65 K) was 0.572, the solubility (mole fraction) (in 1,2-dichloroethane, 326.85 K) was 0.615 and the solubility (mole fraction) (in 1,4-dioxane, 307.15 K) was 0.34. It also gave a solubility (mole fraction) (in 1,4-dioxane, 310.15 K) of 0.381, a solubility (mole fraction) (in 1,4-dioxane, 314.05 K) of 0.429 and a solubility (mole fraction) (in 1,4-dioxane, 317.15 K) of 0.475. It also gave a solubility (mole fraction) (in 1,4-dioxane, 320.05 K) of 0.512, a solubility (mole fraction) (in 1,4-dioxane, 323.15 K) of 0.543 and a solubility (mole fraction) (in 1,4-dioxane, 326.65 K) of 0.589. For the same molecule, the solubility (mole fraction) (in 1,4-dioxane, 329.85 K) was 0.637, the solubility (mole fraction) (in acetone, 299.15 K) was 0.126 and the solubility (mole fraction) (in acetone, 303.15 K) was 0.167. For the same molecule, the solubility (mole fraction) (in acetone, 307.15 K) was 0.219, the solubility (mole fraction) (in acetone, 310.15 K) was 0.266 and the solubility (mole fraction) (in acetone, 314.25 K) was 0.319. It also gave a solubility (mole fraction) (in acetone, 317.15 K) of 0.358, a solubility (mole fraction) (in acetone, 320.15 K) of 0.383 and a solubility (mole fraction) (in acetone, 323.15 K) of 0.417. The solubility (mole fraction) (in ethanol, 305.65 K) was 0.0424, the solubility (mole fraction) (in ethanol, 307.95 K) was 0.0493 and the solubility (mole fraction) (in ethanol, 309.65 K) was 0.0557. The solubility (mole fraction) (in ethanol, 312.15 K) was 0.0703, the solubility (mole fraction) (in ethanol, 315.15 K) was 0.1 and the solubility (mole fraction) (in ethanol, 318.15 K) was 0.154. It also gave a solubility (mole fraction) (in ethanol, 321.15 K) of 0.26, a solubility (mole fraction) (in ethyl acetate, 305.25 K) of 0.192 and a solubility (mole fraction) (in ethyl acetate, 308.15 K) of 0.24. It also gave a solubility (mole fraction) (in ethyl acetate, 311.65 K) of 0.283, a solubility (mole fraction) (in ethyl acetate, 314.15 K) of 0.325 and a solubility (mole fraction) (in ethyl acetate, 317.05 K) of 0.355. It also gave a solubility (mole fraction) (in ethyl acetate, 320.15 K) of 0.409, a solubility (mole fraction) (in ethyl acetate, 323.65 K) of 0.461 and a solubility (mole fraction) (in ethyl acetate, 327.15 K) of 0.511. For the same molecule, the solubility (mole fraction) (in methanol, 299.15 K) was 0.00556, the solubility (mole fraction) (in methanol, 302.15 K) was 0.00643 and the solubility (mole fraction) (in methanol, 305.15 K) was 0.00761. It also gave a solubility (mole fraction) (in methanol, 308.15 K) of 0.00911, a solubility (mole fraction) (in methanol, 311.15 K) of 0.0113 and a solubility (mole fraction) (in methanol, 314.15 K) of 0.0145. The solubility (mole fraction) (in methanol, 317.15 K) was 0.0196, the solubility (mole fraction) (in methanol, 320.15 K) was 0.0264 and the solubility (mole fraction) (in toluene, 304.65 K) was 0.332. The solubility (mole fraction) (in toluene, 308.15 K) was 0.374, the solubility (mole fraction) (in toluene, 311.65 K) was 0.412 and the solubility (mole fraction) (in toluene, 315.15 K) was 0.453. It also gave a solubility (mole fraction) (in toluene, 318.15 K) of 0.489 and a solubility (mole fraction) (in toluene, 321.05 K) of 0.526.
